The values that follow come from patent US10351546B2, “Pyridin-3-yl acetic acid derivatives as inhibitors of human immunodeficiency virus replication” (priority 2015, dated 2019).

Each structure is given as a SMILES string.

One assay concerns NL-RLuc virus. Put plainly: Inhibition of HIV replication (NL-RLuc luciferase reporter virus in MT-2 cells). In kind it is cell-based. The settings on record: Human immunodeficiency virus 1, MT2, 120 h, read-out: Activity. In short, it runs like this: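 The read-out is Renilla luciferase expressed by replication-competent NL-RLuc (nef partly replaced), measured 5 days after infection of MT-2 cells grown with compound dilutions in 10% FBS RPMI. Median effect equation gives EC50 from ≥2 runs; A ≤100 nM, B 100 nM–1 uM, C >1 uM.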
(In general: In a reporter assay the amount or activity of a reporter protein is the signal.)
As to `Cc1cc(F)ccc1CN1CCc2cc(-c3c(CN(C)C)nc(C)c([C@H](OC(C)(C)C)C(=O)O)c3N3CCC(C)(C)CC3)ccc2C1` [Example 115, (S)-2-(tert-Butoxy)-2-(6-((dimethylamino)methyl)-4-(4,4-dimethylpiperidin-1-yl)-5-(2-(4-fluoro-2-methylbenzyl)-1,2,3,4-tetrahydroisoquinolin-6-yl)-2-methylpyridin-3-yl)acetic acid], the EC50 was less than 0.1 µM.

Turning to `COCCc1nc(C)c([C@H](OC(C)(C)C)C(=O)O)c(N2CCC(C)(C)CC2)c1-c1ccc(OCCc2ccc(F)cc2)cc1` [Example 58, (S)-2-(tert-butoxy)-2-(4-(4,4-dimethylpiperidin-1-yl)-5-(4-(4-fluorophenethoxy)phenyl)-6-(2-methoxyethyl)-2-methylpyridin-3-yl)acetic acid], the EC50 was less than 0.1 µM.

As to `Cc1nc(CNC(C)C)c(-c2ccc(OCCc3ccc(F)cc3)cc2)c(N2CCC(C)(C)CC2)c1[C@H](OC(C)(C)C)C(=O)O` [Example 66, (S)-2-(tert-Butoxy)-2-(4-(4,4-dimethylpiperidin-1-yl)-5-(4-(4-fluorophenethoxy)phenyl)-6-((isopropylamino)methyl)-2-methylpyridin-3-yl)acetic acid], the EC50 was less than 0.1 µM.

Turning to `Cc1nc(C(=O)N(C)CC2CCOCC2)c(-c2ccc(OCCc3ccc(F)cc3)cc2)c(N2CCC(C)(C)CC2)c1[C@H](OC(C)(C)C)C(=O)O` [Example 41, (S)-2-(tert-Butoxy)-2-(4-(4,4-dimethylpiperidin-1-yl)-5-(4-(4-fluorophenethoxy)phenyl)-2-methyl-6-(methyl((tetrahydro-2H-pyran-4-yl)methyl)carbamoyl)pyridin-3-yl)acetic acid], the EC50 is less than 0.1 µM.

As for `Cc1cc(F)ccc1CN1CCc2cc(-c3c(CN4CCC(C)(C)CC4)nc(C)c([C@H](OC(C)(C)C)C(=O)O)c3N3CCC(C)(C)CC3)ccc2C1` [Example 120, (S)-2-(tert-Butoxy)-2-(4-(4,4-dimethylpiperidin-1-yl)-6-((4,4-dimethylpiperidin-1-yl)methyl)-5-(2-(4-fluoro-2-methylbenzyl)-1,2,3,4-tetrahydroisoquinolin-6-yl)-2-methylpyridin-3-yl)acetic acid], the EC50 was less than 0.1 µM.

On to `Cc1nc(NS(C)(=O)=O)c(-c2ccc(OCCc3ccc(F)cc3)cc2)c(N2CCC(C)(C)CC2)c1[C@H](OC(C)(C)C)C(=O)O` [Example 48, (S)-2-(tert-Butoxy)-2-(4-(4,4-dimethylpiperidin-1-yl)-5-(4-(4-fluorophenethoxy)phenyl)-2-methyl-6-(methylsulfonamido)pyridin-3-yl)acetic acid], for which the EC50 is less than 0.1 µM.

`Cc1nc(COCC2COC2)c([C@H](OC(C)(C)C)C(=O)O)c(N2CCC(C)(C)CC2)c1-c1ccc(OCCc2ccc(F)cc2)cc1` [Example 109, (S)-2-(tert-Butoxy)-2-(4-(4,4-dimethylpiperidin-1-yl)-5-(4-(4-fluorophenethoxy)phenyl)-6-methyl-2-((oxetan-3-ylmethoxy)methyl)pyridin-3-yl)acetic acid]: the EC50 is less than 0.1 µM.

For `Cc1nc(CN2CCC(F)CC2)c(-c2ccc(OCCc3ccc(F)cc3)cc2)c(N2CCC(C)(C)CC2)c1[C@H](OC(C)(C)C)C(=O)O` [Example 90, (S)-2-(tert-Butoxy)-2-(4-(4,4-dimethylpiperidin-1-yl)-5-(4-(4-fluorophenethoxy)phenyl)-6-((4-fluoropiperidin-1-yl)methyl)-2-methylpyridin-3-yl)acetic acid], the EC50 is less than 0.1 µM.

Take `CC(=O)NCc1nc(C)c([C@H](OC(C)(C)C)C(=O)O)c(N2CCC(C)(C)CC2)c1-c1ccc(OCCc2ccc(F)cc2)cc1` [Example 106, (S)-2-(6-(Acetamidomethyl)-4-(4,4-dimethylpiperidin-1-yl)-5-(4-(4-fluorophenethoxy)phenyl)-2-methylpyridin-3-yl)-2-(tert-butoxy)acetic acid]: the EC50 was less than 0.1 µM.

For the molecule `CC1(C)CCN(c2c([C@H](OC(C)(C)C)C(=O)O)cnc(CO)c2-c2ccc(OCCc3ccc(F)cc3)cc2)CC1` [Example 181, (S)-2-(tert-butoxy)-2-(4-(4,4-dimethylpiperidin-1-yl)-5-(4-(4-fluorophenethoxy)phenyl)-6-(hydroxymethyl)pyridin-3-yl)acetic acid], the EC50 is less than 0.1 µM.

Take `Cc1cc(C)n(COCc2nc(C)c([C@H](OC(C)(C)C)C(=O)O)c(N3CCC(C)(C)CC3)c2-c2ccc(OCCc3ccc(F)cc3)cc2)n1` [Example 25, (S)-2-(tert-Butoxy)-2-(6-(((3,5-dimethyl-1H-pyrazol-1-yl)methoxy)methyl)-4-(4,4-dimethylpiperidin-1-yl)-5-(4-(4-fluorophenethoxy)phenyl)-2-methylpyridin-3-yl)acetic acid]: the EC50 was less than 0.1 µM.

As for `Cc1cc(F)ccc1CN1CCc2cc(-c3c(CN4CCCC4)nc(C)c([C@H](OC(C)(C)C)C(=O)O)c3N3CCC(C)(C)CC3)ccc2C1` [Example 118, (S)-2-(tert-Butoxy)-2-(4-(4,4-dimethylpiperidin-1-yl)-5-(2-(4-fluoro-2-methylbenzyl)-1,2,3,4-tetrahydroisoquinolin-6-yl)-2-methyl-6-(pyrrolidin-1-ylmethyl)pyridin-3-yl)acetic acid], the EC50 was less than 0.1 µM.

Consider `CC(=O)N(C)Cc1nc(C)c([C@H](OC(C)(C)C)C(=O)O)c(N2CCC(C)(C)CC2)c1-c1ccc2c(c1)CCN(Cc1ccc(F)cc1C)C2` [Example 143, (S)-2-(tert-Butoxy)-2-(4-(4,4-dimethylpiperidin-1-yl)-5-(2-(4-fluoro-2-methylbenzyl)-1,2,3,4-tetrahydroisoquinolin-6-yl)-2-methyl-6-((N-methylacetamido)methyl)pyridin-3-yl)acetic acid], for which the EC50 was less than 0.1 µM.

Take `Cc1nc(CO)c(-c2ccc3c(c2)CCN(c2ncnc4c2oc2ccccc24)C3)c(N2CCC(C)(C)CC2)c1[C@H](OC(C)(C)C)C(=O)O` [Example 168, (S)-2-(5-(2-(Benzofuro[3,2-d]pyrimidin-4-yl)-1,2,3,4-tetrahydroisoquinolin-6-yl)-4-(4,4-dimethylpiperidin-1-yl)-6-(hydroxymethyl)-2-methylpyridin-3-yl)-2-(tert-butoxy)acetic acid]: the EC50 is less than 0.1 µM.

In the case of `Cc1nc(CN2CC(C)OC(C)C2)c(-c2ccc(OCCc3ccc(F)cc3)cc2)c(N2CCC(C)(C)CC2)c1[C@H](OC(C)(C)C)C(=O)O` (stereo partly drawn) [Example 92, (2S)-2-(tert-Butoxy)-2-(6-((2,6-dimethylmorpholino)methyl)-4-(4,4-dimethylpiperidin-1-yl)-5-(4-(4-fluorophenethoxy)phenyl)-2-methylpyridin-3-yl)acetic acid], the EC50 is less than 0.1 µM.

For the molecule `CC[N+](CC)(CC)Cc1nc(C)c([C@H](OC(C)(C)C)C(=O)O)c(N2CCC(C)(C)CC2)c1-c1ccc2c(c1)CCN(Cc1ccc(F)cc1C)C2` [Example 125, (S)—N-((5-(tert-Butoxy(carboxy)methyl)-4-(4,4-dimethylpiperidin-1-yl)-3-(2-(4-fluoro-2-methylbenzyl)-1,2,3,4-tetrahydroisoquinolin-6-yl)-6-methylpyridin-2-yl)methyl)-N,N-diethylethanaminium], the EC50 was less than 0.1 µM.

For `COCCN(CCOC)Cc1nc(C)c([C@H](OC(C)(C)C)C(=O)O)c(N2CCC(C)(C)CC2)c1-c1ccc(OCCc2ccc(F)cc2)cc1` [Example 93, (S)-2-(6-((Bis(2-methoxyethyl)amino)methyl)-4-(4,4-dimethylpiperidin-1-yl)-5-(4-(4-fluorophenethoxy)phenyl)-2-methylpyridin-3-yl)-2-(tert-butoxy)acetic acid], the EC50 is less than 0.1 µM.

Turning to `CCOCCOCc1nc(C)c([C@H](OC(C)(C)C)C(=O)O)c(N2CCC(C)(C)CC2)c1Br` [Example 37, (S)-2-(5-bromo-4-(4,4-dimethylpiperidin-1-yl)-6-((2-ethoxyethoxy)methyl)-2-methylpyridin-3-yl)-2-(tert-butoxy)acetic acid], the EC50 was less than 0.1 µM.

As for `Cc1cccc(Cl)c1CN1CCc2cc(-c3c(CO)nc(C)c([C@H](OC(C)(C)C)C(=O)O)c3N3CCC(C)(C)CC3)ccc2C1` [Example 165, (S)-2-(tert-butoxy)-2-(5-(2-(2-chloro-6-methylbenzyl)-1,2,3,4-tetrahydroisoquinolin-6-yl)-4-(4,4-dimethylpiperidin-1-yl)-6-(hydroxymethyl)-2-methylpyridin-3-yl)acetic acid], the EC50 is less than 0.1 µM.

Consider `Cc1cc(F)ccc1CN1CCc2cc(-c3c(COCC4COC4)nc(C)c([C@H](OC(C)(C)C)C(=O)O)c3N3CCC(C)(C)CC3)ccc2C1` [Example 154, (S)-2-(tert-Butoxy)-2-(4-(4,4-dimethylpiperidin-1-yl)-5-(2-(4-fluoro-2-methylbenzyl)-1,2,3,4-tetrahydroisoquinolin-6-yl)-2-methyl-6-((oxetan-3-ylmethoxy)methyl)pyridin-3-yl)acetic acid], for which the EC50 is less than 0.1 µM.

Turning to `Cc1cc(F)ccc1CN1CCc2cc(-c3c(Cn4cnnc4C)nc(C)c([C@H](OC(C)(C)C)C(=O)O)c3N3CCC(C)(C)CC3)ccc2C1` [Example 146, (S)-2-(tert-butoxy)-2-(4-(4,4-dimethylpiperidin-1-yl)-5-(2-(4-fluoro-2-methylbenzyl)-1,2,3,4-tetrahydroisoquinolin-6-yl)-2-methyl-6-((3-methyl-4H-1,2,4-triazol-4-yl)methyl)pyridin-3-yl)acetic acid], the EC50 was less than 0.1 µM.

As for `Cc1nc(CN2CCC3(CCC3)CC2)c(-c2ccc(OCCc3ccc(F)cc3)cc2)c(N2CCC(C)(C)CC2)c1[C@H](OC(C)(C)C)C(=O)O` [Example 82, (S)-2-(6-(7-Azaspiro[3.5]nonan-7-ylmethyl)-4-(4,4-dimethylpiperidin-1-yl)-5-(4-(4-fluorophenethoxy)phenyl)-2-methylpyridin-3-yl)-2-(tert-butoxy)acetic acid], the EC50 was less than 0.1 µM.

The same assay, now with this note: Human immunodeficiency virus 1, MT2, 120 h, read-out: EC50 μM.
As to `Cc1nc(COCC2COC2)c([C@H](OC(C)(C)C)C(=O)O)c(N2CCC(C)(C)CC2)c1-c1ccc(OCCc2ccc(F)cc2)cc1` [Example 109, (S)-2-(tert-Butoxy)-2-(4-(4,4-dimethylpiperidin-1-yl)-5-(4-(4-fluorophenethoxy)phenyl)-6-methyl-2-((oxetan-3-ylmethoxy)methyl)pyridin-3-yl)acetic acid], the EC50 worked out at 0.005 µM.

Turning to `Cc1cc(F)ccc1CN1CCc2cc(-c3c(CN4CCCC4)nc(C)c([C@H](OC(C)(C)C)C(=O)O)c3N3CCC(C)(C)CC3)ccc2C1` [Example 118, (S)-2-(tert-Butoxy)-2-(4-(4,4-dimethylpiperidin-1-yl)-5-(2-(4-fluoro-2-methylbenzyl)-1,2,3,4-tetrahydroisoquinolin-6-yl)-2-methyl-6-(pyrrolidin-1-ylmethyl)pyridin-3-yl)acetic acid], the EC50 amounted to 0.002 µM.

Consider `Cc1nc(CO)c(-c2ccc3c(c2)CCN(c2ncnc4c2oc2ccccc24)C3)c(N2CCC(C)(C)CC2)c1[C@H](OC(C)(C)C)C(=O)O` [Example 168, (S)-2-(5-(2-(Benzofuro[3,2-d]pyrimidin-4-yl)-1,2,3,4-tetrahydroisoquinolin-6-yl)-4-(4,4-dimethylpiperidin-1-yl)-6-(hydroxymethyl)-2-methylpyridin-3-yl)-2-(tert-butoxy)acetic acid], for which the EC50 turned out to be 0.001 µM.

For the molecule `CC[N+](CC)(CC)Cc1nc(C)c([C@H](OC(C)(C)C)C(=O)O)c(N2CCC(C)(C)CC2)c1-c1ccc2c(c1)CCN(Cc1ccc(F)cc1C)C2` [Example 125, (S)—N-((5-(tert-Butoxy(carboxy)methyl)-4-(4,4-dimethylpiperidin-1-yl)-3-(2-(4-fluoro-2-methylbenzyl)-1,2,3,4-tetrahydroisoquinolin-6-yl)-6-methylpyridin-2-yl)methyl)-N,N-diethylethanaminium], the EC50 came to 0.016 µM.
